The target of this experiment is PIK3CG (human) (UniProt P48736). As to the kind of experiment: Inhibition of PIK3CG Kinase Activity.
Sequence of PIK3CG (human) (P48736 whole entry, looked up): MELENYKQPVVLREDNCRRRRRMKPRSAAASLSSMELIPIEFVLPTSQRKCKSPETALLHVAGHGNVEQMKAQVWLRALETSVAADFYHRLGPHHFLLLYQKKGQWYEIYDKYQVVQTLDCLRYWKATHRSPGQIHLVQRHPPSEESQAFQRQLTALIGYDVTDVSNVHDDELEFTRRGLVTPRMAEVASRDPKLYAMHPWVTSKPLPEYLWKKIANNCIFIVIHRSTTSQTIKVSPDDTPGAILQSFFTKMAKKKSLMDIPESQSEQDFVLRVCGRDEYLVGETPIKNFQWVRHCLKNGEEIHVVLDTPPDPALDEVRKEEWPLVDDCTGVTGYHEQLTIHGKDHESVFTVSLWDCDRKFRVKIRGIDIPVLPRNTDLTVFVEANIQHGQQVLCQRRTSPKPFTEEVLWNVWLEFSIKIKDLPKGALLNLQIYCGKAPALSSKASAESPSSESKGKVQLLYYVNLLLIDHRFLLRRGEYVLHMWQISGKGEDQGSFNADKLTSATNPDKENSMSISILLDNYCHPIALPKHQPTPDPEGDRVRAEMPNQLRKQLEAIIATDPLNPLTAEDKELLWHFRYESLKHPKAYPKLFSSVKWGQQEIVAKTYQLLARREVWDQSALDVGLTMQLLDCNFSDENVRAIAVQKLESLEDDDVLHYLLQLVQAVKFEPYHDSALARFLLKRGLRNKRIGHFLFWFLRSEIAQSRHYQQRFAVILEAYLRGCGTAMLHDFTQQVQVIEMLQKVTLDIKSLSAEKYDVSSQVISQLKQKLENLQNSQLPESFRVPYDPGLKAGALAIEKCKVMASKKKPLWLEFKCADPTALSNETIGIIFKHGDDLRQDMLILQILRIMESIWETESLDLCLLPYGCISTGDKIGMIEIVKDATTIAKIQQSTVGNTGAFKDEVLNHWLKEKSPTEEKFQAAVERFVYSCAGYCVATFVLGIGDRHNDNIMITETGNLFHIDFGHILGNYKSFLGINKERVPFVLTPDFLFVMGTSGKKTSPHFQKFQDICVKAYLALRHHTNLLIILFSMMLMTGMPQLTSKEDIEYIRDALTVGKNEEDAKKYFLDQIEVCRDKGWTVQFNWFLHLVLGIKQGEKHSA

With `Nc1nnc(CNC(=O)Nc2nc3c(s2)-c2c(cnn2-c2ccccc2C(F)(F)F)C3)[nH]1`, the IC50 (in general, the concentration needed to halve the response being measured) is less than 800 nM. In the case of `O=C(NCCc1cn[nH]c1)Nc1nc2c(s1)-c1c(cnn1-c1ccccc1Cl)C2` it was less than 800 nM; in that of `CCCn1cnc(CCNC(=O)Nc2nc3c(s2)-c2c(cnn2-c2ccccc2Cl)C3)c1`, less than 800 nM. As to `CCn1nc(CCNC(=O)Nc2nc3c(s2)-c2c(cnn2-c2ccccc2C(F)(F)F)C3)cc1N`, the IC50 was less than 800 nM. The value for `NC(=O)c1cccc(CNC(=O)Nc2nc3c(s2)-c2c(cnn2-c2ccccc2Cl)C3)c1` was less than 800 nM; that for `CCCn1ccc(CNC(=O)Nc2nc3c(s2)-c2c(cnn2-c2ccccc2C(F)(F)F)C3)n1` was less than 800 nM.

Take `O=C(Nc1nc2c(s1)-c1c(cnn1-c1ccccc1Cl)C2)N1CCCC(c2nc3ccccc3[nH]2)C1` (configuration not stated): the IC50 was less than 800 nM. Regarding `CCc1cnc(CCNC(=O)Nc2nc3c(s2)-c2c(cnn2-c2ccccc2Br)C3)o1`, the IC50 is less than 800 nM.

On to `CCOC(=O)CNC(=O)Nc1nc2c(s1)-c1c(cnn1-c1ccccc1C(F)(F)F)C2`, for which the IC50 is less than 800 nM. `CNC(=O)Nc1nc2c(s1)-c1c(cnn1-c1cccc(F)c1C(F)(F)F)C2`: the IC50 was less than 800 nM. Take `CN1CCC(CNC(=O)Nc2nc3c(s2)-c2c(cnn2-c2ccccc2Cl)C3)CC1`: the IC50 is less than 800 nM. In the case of `Cc1nn(C)cc1CNC(=O)Nc1nc2c(s1)-c1c(cnn1-c1ccccc1Cl)C2` it was less than 800 nM; in that of `CCCNC(=O)Nc1nc2c(s1)-c1c(cnn1-c1ccc(C(=O)NC)cc1C(F)(F)F)C2`, less than 800 nM. The compound `O=C(NCc1cccs1)Nc1nc2c(s1)-c1c(cnn1-c1ccccc1C(F)(F)F)C2` displayed an IC50 of less than 800 nM. In the case of `NC(=O)Nc1nc2c(s1)-c1c(cnn1-c1cccc(F)c1C(F)(F)F)C2` it was less than 800 nM. The value for `NC(=O)Nc1nc2c(s1)-c1c(cnn1-c1ccccc1C(F)(F)F)C2` was less than 800 nM; that for `CCCn1cnc(CCNC(=O)Nc2nc3c(s2)-c2c(cnn2-c2ccccc2Br)C3)c1` was less than 800 nM; that for `CC(C)(C)OC(=O)N1CCCCC1CNC(=O)Nc1nc2c(s1)-c1c(cnn1-c1ccccc1Cl)C2` (configuration not stated) was less than 800 nM. In the case of `CCOC(=O)CCNC(=O)Nc1nc2c(s1)-c1c(cnn1-c1ccccc1Br)C2` it was less than 800 nM; in that of `CC(C)(C)n1nc(CNC(=O)Nc2nc3c(s2)-c2c(cnn2-c2ccccc2C(F)(F)F)C3)cc1N`, less than 800 nM; in that of `CCn1cnc(CCNC(=O)Nc2nc3c(s2)-c2c(cnn2-c2ccccc2C(F)(F)F)C3)c1`, less than 800 nM.

`Cc1c[nH]c(CCNC(=O)Nc2nc3c(s2)-c2c(cnn2-c2ccccc2Cl)C3)n1` came in with an IC50 of less than 800 nM. The compound `O=C(Nc1nc2c(s1)-c1c(cnn1-c1ccccc1Cl)C2)N1CCC(N2Cc3ccccc3NC2=O)C1` (configuration not stated) returned an IC50 of less than 800 nM. In the case of `O=C(NCCc1ccncc1)Nc1nc2c(s1)-c1c(cnn1-c1ccccc1Cl)C2` it was less than 800 nM. The value for `O=C(NCc1cc(C2CC2)n[nH]1)Nc1nc2c(s1)-c1c(cnn1-c1cccc(F)c1C(F)(F)F)C2` was less than 800 nM; that for `O=C(Nc1nc2c(s1)-c1c(cnn1-c1ccccc1Cl)C2)Nc1ccccc1CN1CCNC1=O` was less than 800 nM; that for `CCc1cnc(CCNC(=O)Nc2nc3c(s2)-c2c(cnn2-c2cc(Cl)ccc2Cl)C3)o1` was less than 800 nM. The value for `Cn1cc(CCNC(=O)Nc2nc3c(s2)-c2c(cnn2-c2ccccc2C(F)(F)F)C3)cn1` was less than 800 nM; that for `Cc1cc(C2CCCCC2)n(CCNC(=O)Nc2nc3c(s2)-c2c(cnn2-c2ccccc2C(F)(F)F)C3)n1` was less than 800 nM; that for `O=C(NCCc1nc(C2CC2)no1)Nc1nc2c(s1)-c1c(cnn1-c1ccccc1Cl)C2` was less than 800 nM.

`O=C(Nc1nc2c(s1)-c1c(cnn1-c1ccccc1Cl)C2)N1CCCC(c2ccccc2O)C1` (configuration not stated): the IC50 is less than 800 nM. The value for `CCNC(=O)Nc1nc2c(s1)-c1c(cnn1-c1ccccc1Br)C2` was less than 800 nM; that for `CC(C)n1nc(CNC(=O)Nc2nc3c(s2)-c2c(cnn2-c2ccccc2C(F)(F)F)C3)cc1N` was less than 800 nM.

Compound `Nc1cc(CCNC(=O)Nc2nc3c(s2)-c2c(cnn2-c2ccccc2C(F)(F)F)C3)nn1C1CCCCC1` yielded an IC50 of less than 800 nM. The value for `Cc1cc(=O)n(CCNC(=O)Nc2nc3c(s2)-c2c(cnn2-c2ccccc2C(F)(F)F)C3)[nH]1` was less than 800 nM.

Regarding `C=CCn1cnc(CCNC(=O)Nc2nc3c(s2)-c2c(cnn2-c2ccccc2C(F)(F)F)C3)c1`, the concentration for half-maximal inhibition (IC50) is less than 800 nM. The value for `CC(C)(C)OC(=O)CCNC(=O)Nc1nc2c(s1)-c1c(cnn1-c1ccccc1Br)C2` was less than 800 nM. In turn, `CCc1cc(=O)n(CCNC(=O)Nc2nc3c(s2)-c2c(cnn2-c2ccccc2C(F)(F)F)C3)[nH]1` returned a half-inhibitory concentration (IC50) of less than 800 nM. In the case of `Cn1nc(CNC(=O)Nc2nc3c(s2)-c2c(cnn2-c2ccccc2C(F)(F)F)C3)cc1O` it was less than 800 nM; in that of `O=C(NCc1cc(C2CC2)n[nH]1)Nc1nc2c(s1)-c1c(cnn1-c1ccccc1C(F)(F)F)C2`, less than 800 nM. The value for `Cc1nn(C)cc1CNC(=O)Nc1nc2c(s1)-c1c(cnn1-c1ccccc1C(F)(F)F)C2` was less than 800 nM; that for `O=C1Cc2ccccc2CN1CC1CCN(C(=O)Nc2nc3c(s2)-c2c(cnn2-c2ccccc2Cl)C3)C1` (configuration not stated) was less than 800 nM; that for `CC(C)(C)OC(=O)CCNC(=O)Nc1nc2c(s1)-c1c(cnn1-c1cc(Cl)ccc1Cl)C2` was less than 800 nM. `O=C(Nc1nc2c(s1)-c1c(cnn1-c1ccccc1Cl)C2)N1CCC(N2CCNC2=O)CC1` yielded an IC50 of less than 800 nM.

In turn, `O=C(NCc1ccn[nH]1)Nc1nc2c(s1)-c1c(cnn1-c1ccccc1C(F)(F)F)C2` returned an IC50 of less than 800 nM. Compound `CC(C)(CCn1c(=O)[nH]c2ccccc21)NC(=O)Nc1nc2c(s1)-c1c(cnn1-c1ccccc1C(F)(F)F)C2` displayed an IC50 of less than 800 nM.

As to `O=C(NCc1cc(C2CC2)n[nH]1)Nc1nc2c(s1)-c1c(cnn1-c1ccccc1Br)C2`, the IC50 is less than 800 nM.

Turning to `O=C(O)CC1(CNC(=O)Nc2nc3c(s2)-c2c(cnn2-c2ccccc2Cl)C3)CCCCC1`, the IC50 is less than 800 nM. The value for `Nc1cc(CCNC(=O)Nc2nc3c(s2)-c2c(cnn2-c2ccccc2C(F)(F)F)C3)nn1CCO` was less than 800 nM. `CCOC(=O)c1ccc(CNC(=O)Nc2nc3c(s2)-c2c(cnn2-c2ccccc2C(F)(F)F)C3)o1`: the IC50 was less than 800 nM. In the case of `CNC(=O)Nc1nc2c(s1)-c1c(cnn1-c1ccccc1Br)C2` it was less than 800 nM; in that of `Cc1cc(C)n(CCNC(=O)Nc2nc3c(s2)-c2c(cnn2-c2ccccc2C(F)(F)F)C3)n1`, less than 800 nM.

As to `CC(C)(C)OC(=O)N1CCC[C@@H]1CNC(=O)Nc1nc2c(s1)-c1c(cnn1-c1ccccc1C(F)(F)F)C2`, the half-maximal inhibitory concentration (IC50) is less than 800 nM. In the case of `CC(C)NC(=O)Nc1nc2c(s1)-c1c(cnn1-c1ccccc1Br)C2` it was less than 800 nM; in that of `CN(Cc1ccco1)C(=O)Nc1nc2c(s1)-c1c(cnn1-c1ccccc1C(F)(F)F)C2`, less than 800 nM; in that of `CC(C)(C)OC(=O)Nc1cccc(CNC(=O)Nc2nc3c(s2)-c2c(cnn2-c2ccccc2Cl)C3)c1`, less than 800 nM. In the case of `Cn1ccc(CNC(=O)Nc2nc3c(s2)-c2c(cnn2-c2ccccc2C(F)(F)F)C3)n1` it was less than 800 nM; in that of `O=C(NCc1nnn[nH]1)Nc1nc2c(s1)-c1c(cnn1-c1ccccc1Br)C2`, less than 800 nM.

For `O=C1CC[C@H](NC(=O)Nc2nc3c(s2)-c2c(cnn2-c2ccccc2Cl)C3)CN1`, the half-inhibitory concentration (IC50) was less than 800 nM. In the case of `CC(C)Cn1nc(CCNC(=O)Nc2nc3c(s2)-c2c(cnn2-c2ccccc2C(F)(F)F)C3)cc1N` it was less than 800 nM; in that of `CC(C)Cn1cnc(CCNC(=O)Nc2nc3c(s2)-c2c(cnn2-c2ccccc2C(F)(F)F)C3)c1`, less than 800 nM; in that of `O=C(NCCN1CCCC1)Nc1nc2c(s1)-c1c(cnn1-c1ccccc1Br)C2`, less than 800 nM. In the case of `O=C(Nc1nc2c(s1)-c1c(cnn1-c1ccccc1Cl)C2)N1CCC2(CC1)C(=O)NCN2c1ccccc1` it was less than 800 nM; in that of `O=C(NCc1nnn[nH]1)Nc1nc2c(s1)-c1c(cnn1-c1ccccc1Cl)C2`, less than 800 nM; in that of `CN(C)C(=O)CNC(=O)Nc1nc2c(s1)-c1c(cnn1-c1ccccc1Cl)C2`, less than 800 nM.

Consider `O=C(NCc1ccccc1)Nc1nc2c(s1)-c1c(cnn1-c1ccccc1Cl)C2`, for which the IC50 was less than 800 nM. `O=C(NCCc1ccccn1)Nc1nc2c(s1)-c1c(cnn1-c1ccccc1Cl)C2` registered an IC50 of less than 800 nM. In the case of `CC(C)(C)OC(=O)CC1(O)CCN(C(=O)Nc2nc3c(s2)-c2c(cnn2-c2ccccc2Cl)C3)CC1` it was less than 800 nM.

Turning to `CCCn1nc(CCNC(=O)Nc2nc3c(s2)-c2c(cnn2-c2ccccc2C(F)(F)F)C3)cc1N`, the IC50 was less than 800 nM. The value for `CCc1noc(CCNC(=O)Nc2nc3c(s2)-c2c(cnn2-c2ccccc2C(F)(F)F)C3)n1` was less than 800 nM.

`CC(C)(C)OC(=O)NC1CCN(C(=O)Nc2nc3c(s2)-c2c(cnn2-c2ccccc2Cl)C3)C1` (configuration not stated) displayed an IC50 of less than 800 nM. The value for `CN(C)C(=O)Nc1nc2c(s1)-c1c(cnn1-c1ccccc1C(F)(F)F)C2` was less than 800 nM. `CC(C)(C)OC(=O)CCNC(=O)Nc1nc2c(s1)-c1c(cnn1-c1ccccc1Cl)C2`: the IC50 was less than 800 nM. Consider `O=C(O)[C@H]1[C@H](c2ccccc2)CCN1C(=O)Nc1nc2c(s1)-c1c(cnn1-c1ccccc1Cl)C2`, for which the IC50 was less than 800 nM. The value for `CCn1cnc(CCNC(=O)Nc2nc3c(s2)-c2c(cnn2-c2cccc(F)c2C(F)(F)F)C3)c1` was less than 800 nM; that for `O=C(NCC1CC1)Nc1nc2c(s1)-c1c(cnn1-c1ccccc1Cl)C2` was less than 800 nM; that for `CCc1cnc(CCNC(=O)Nc2nc3c(s2)-c2c(cnn2-c2ccccc2Cl)C3)o1` was less than 800 nM. In the case of `CC(C)(O)Cn1cnc(CCNC(=O)Nc2nc3c(s2)-c2c(cnn2-c2ccccc2C(F)(F)F)C3)c1` it was less than 800 nM; in that of `Cc1cc(-c2ccco2)n(CCNC(=O)Nc2nc3c(s2)-c2c(cnn2-c2ccccc2C(F)(F)F)C3)n1`, less than 800 nM; in that of `CC1(C)NC(=O)N(Cc2ccc(CNC(=O)Nc3nc4c(s3)-c3c(cnn3-c3ccccc3Cl)C4)cc2)C1=O`, less than 800 nM. Consider `Nc1cc(-c2ccccc2)nn1CCNC(=O)Nc1nc2c(s1)-c1c(cnn1-c1ccccc1C(F)(F)F)C2`, for which the IC50 is less than 800 nM. The value for `O=C(NCc1nnn[nH]1)Nc1nc2c(s1)-c1c(cnn1-c1ccccc1C(F)(F)F)C2` was less than 800 nM.

The values above are taken from the Kinase Knowledgebase extract (Sharma et al. 2016).
